Test results published in PMC3584109, “Protective Effect of Borage Seed Oil and Gamma Linolenic Acid on DNA: In Vivo and In Vitro Studies” (PLoS ONE, 2013).
Where two headings read alike, the source gives them in different places. Marks after values point to notes of the source that are not given here.

What was measured:
[1] = test system: human hepatoma HepG2 cells (E9 cells); set-up: method as in PMID 9660301; settings: cited from earlier work
D. melanogaster [2] = test: Longevity assay (life span and health span); assay type: in vivo, Drosophila melanogaster; settings: all assayed concentrations of GLA
Description: The F1 progeny from […]^3 parental strains produced by 24 h egg-laying in yeast was used. Longevity experiments were carried out at 25°C, following the procedure described by Chavous et al., 2001 [33]. Briefly, synchronised transheterozygous 72±12 h old larvae were washed in distilled water and separated into groups of 100 individuals in vials with a mixture of 0.85 g Drosophila Instant Medium and 4 ml of the different concentrations of the two substances selected. […] Three replicates were used during the complete life span for each control and concentration established. The number of survivors was counted and the medium renewed twice a week. In addition, the Kaplan-Meier estimates of the survival function for each concentration and respective control are plotted as survival curves. Statistical analyses and significance of the curves were assessed using the SPSS 15.0 statistics software (SPSS Inc. Headquarters, Chicago, IL, USA) using the Log-Rank (Mantel-Cox) method.

D. melanogaster [3] = test: Toxicity assay: survival of adults from treated 72 h old larvae; assay type: in vivo, Drosophila melanogaster; settings: for average toxicities (survival): average over tested concentrations
Description: Crosses were performed with optimally fertile virgin females of the flr3/TM3, Bd^s strain and mwh/mwh males. After 8 h egg-laying, 72±3 h old larvae were washed in distilled water, transferred to fresh vials with 0.85 g Drosophila Instant Medium (formula 4–24, Carolina Biological Supply, Burlington NC, USA) which were wetted with 4 ml after of put solutions of increasing concentrations of the borage seed oil and GLA. […] Taking into account the average daily food intake of D. melanogaster (1 mg/day) and the average body weight of D. melanogaster individuals (1 mg), the concentration range for both borage seed oil and GLA were calculate to fit them into the recommended fat daily intake for humans (60 g of total fat/day for 60 kg human body weight). Emerging adults of all groups were counted and stored in 70% ethanol to be analysed. Procedures are: 1) Toxicity assays evaluated (number of individuals born in treatment/number of individuals born in the negative control)x100.

HL60 cells = test: Cytotoxicity assay, Trypan Blue dye exclusion; assay type: cell-based; settings: Homo sapiens, HL-60, 72 h, read-out: IC50 (concentration causing 50% inhibition of cell growth)
Description: The human promyelocytic leukaemia cell line HL60 was obtained from Dr. José M. Villalba Montoro (Department of Cell Biology, Univ. Cordoba, Spain), [34]. HL60 cells were incubated in RPMI-1640 medium (Cat N° A1049101, Invitrogen) supplemented with: L-glutamine 200 mM, (Cat N° G7513, Sigma-Aldrich, St. Louis, MO) antibiotics 100× (Cat N° A5955, Sigma-Aldrich, St. Louis, MO) and 10% heat-inactivated foetal bovine serum (Cat N° SO1805, Linus). Cells were maintained at 37°C in an atmosphere of 5% CO2. Cultures were plated at a density of 12.5×10^4cells/ml in 40 ml culture bottles (25 cm^2) and passed every 2 days.
For the assessment of cell viability, HL60 cells were placed in 12 well culture plates (1×10^5 cells/ml) and treated for 72 h with increasing concentrations of borage seed oil and GLA. Cell viability was determined by the Trypan Blue dye exclusion test (T8154, Sigma-Aldrich, St. Louis, MO). Cells were counted by adding an aliquot of 10 µl of the culture to 10 µl of the Trypan Blue dye. The mix was counted under a light inverted microscope using a Neubauer chamber (AE30/31, Motic). Aliquots were taken after 24, 36, 48, 60 and 72 h incubation. […] Curves are expressed as the percentage of survival with respect to controls at 72 h of growth. […]

D. melanogaster [4] = settings: for % of inhibition: calculated according to Abraham (1994)
Description: (§1) Analysis of the genotoxic and antigenotoxic activities of borage seed oil and GLA, was evaluated by the Drosophila SMART test. Two different Drosophila melanogaster strains carrying visible wing genetic markers were used: the flare (flr) strain flr^3/ln (3LR) TM3, Bd^s and the multiple wing-hair (mwh) strain mwh/mwh. The marker multiple wing hairs (mwh, 3_0.3) is a recessive mutation that is viable in homozygous flies, producing multiple hairs per cell instead of the wild type single-hair trichome. The marker flare (flr^3, 3_38.3) is a recessive mutation which produces individual wing hairs that are malformed. The flr^3 allele is retained via a balancer chromosome carrying multiple inversions and a dominant marker which is homozygous lethal (TM3, Bd^S: Third Multiple 3, Beaded-Serrate). Additional information on genetic markers can be found in [31].
(§2) Crosses were performed with optimally fertile virgin females of the flr3/TM3, Bd^s strain and mwh/mwh males. After 8 h egg-laying, 72±3 h old larvae were washed in distilled water, transferred to fresh vials with 0.85 g Drosophila Instant Medium (formula 4–24, Carolina Biological Supply, Burlington NC, USA) which were wetted with 4 ml after of put solutions of increasing concentrations of the borage seed oil and GLA. Test groups consisting of 100 larvae each were: (i) negative control (distilled water); (ii) mutagenic positive control (hydrogen peroxide 0.12 M); (iii) 5 vials with increasing concentrations of borage seed oil (12.5, 18.7, 31.2, 62.5 and 125 µl/ml); and (iv) 5 vials with increasing concentrations of GLA (8.9, 13, 22, 45 and 90 mM). Taking into account the average daily food intake of D. melanogaster (1 mg/day) and the average body weight of D. melanogaster individuals (1 mg), the concentration range for both borage seed oil and GLA were calculate to fit them into the recommended fat daily intake for humans (60 g of total fat/day for 60 kg human body weight). Emerging adults of all groups were counted and stored in 70% ethanol to be analysed. Procedures are: 1) Toxicity assays evaluated (number of individuals born in treatment/number of individuals born in the negative control)x100. 2) Genotoxicity assays evaluated mutation rate diagnosis of different groups and 3) Antigenotoxicity testing, combined treatments were performed as previously described by Anter et al., 2011 [32], by using hydrogen peroxide 0.12 M as the genotoxicant and the concentrations of borage seed oil and GLA mentioned above in groups (iii) and (iv), evaluating mutation rate diagnosis of different treatments.
(§3) Marker-heterozygous genotypes (mwh/flr^3) were mounted on slides with Faurés solution. Both dorsal and ventral surfaces of the wings containing 22,000 cells were screened under a photonic microscope at 400× magnification for the occurrence of individual spots (mwh or flr phenotype) or twin spots (mwh clone adjacent to flr clone). […] Large individual spots with three or more cells showing mwh or flr phenotypes corresponded to mutational events occurring earlier during larvae development. Twin spots with two juxtaposed clones corresponded uniquely to recombination events between the flr^3 gene and the centromere.
(§4) For the evaluation of genotoxic effects, the frequencies of spots per fly of each treated series were compared to the concurrent negative control for each class of mutational clone. A multiple-decision procedure was used to categorize results as positive, weakly positive, inconclusive, or negative. Statistical analyses were carried out for single, large, twin and total number of spots recovered. Inconclusive and positive data were evaluated by the non-parametric U test of Mann, Whitney and Wilcoxon according to Frei and Würgler 1995 [36]. The inhibition percentage for each compound and treatment was calculated following Abraham, 1994 [37] (hydrogen peroxide alone - substance assayed + hydrogen peroxide / hydrogen peroxide alone) × 100.

D. melanogaster [5] = settings: in vivo
Description: as §1, §2, §3, §4

[6] = test system: leukocytes (HL-60, Jurkat and Raji cells); set-up: method as in PMID 12489694; settings: cited from earlier work

CCCCCCCC/C=C\CCCCCCCC(=O)O [oleic acid, cis-9 octadecenoic]
toxicity to E9 cells ([1]; 0.05 mM): no significant toxicity

CCCCC/C=C\C/C=C\C/C=C\CCCCC(=O)O [GLA, all cis-6,9,12-octadecatrienoic acid]
effect on life span (D. melanogaster [2]): decreased the mean survival time significantly | Survival % Simple treatment (D. melanogaster [3]; GLA 8.9 mM (lowest concentration)): 99% | Survival % Simple treatment (D. melanogaster [3]; GLA 8.9 mM (lowest concentration), listed as Gamma-linolenic acid): 99.25% | Survival % Combined Treatment (D. melanogaster [3]; GLA 8.9 mM + 0.12 M hydrogen peroxide): 48.88*** % | Survival % Simple treatment (D. melanogaster [3]; GLA 13 mM): 66.66*** % | Survival % Combined Treatment (D. melanogaster [3]; GLA 13 mM + 0.12 M hydrogen peroxide): 22.22*** % | Survival % Simple treatment (D. melanogaster [3]; GLA 22 mM): 39.25*** % | Survival % Combined Treatment (D. melanogaster [3]; GLA 22 mM + 0.12 M hydrogen peroxide): 39.25*** % | Survival % Simple treatment (D. melanogaster [3]; GLA 45 mM): 50.37*** % | Survival % Combined Treatment (D. melanogaster [3]; GLA 45 mM + 0.12 M hydrogen peroxide): 37.77*** % | Survival % Simple treatment (D. melanogaster [3]; GLA 90 mM): 20.74*** % | Survival % Combined Treatment (D. melanogaster [3]; GLA 90 mM + 0.12 M hydrogen peroxide): 32.59*** % | decrease in survival (D. melanogaster [3]; GLA, next higher concentration after the lowest (13 mM)): 66% | toxicity to D. melanogaster (D. melanogaster [3]; lowest concentration of GLA): non-toxicity | average toxicities (survival) (D. melanogaster [3]; plus hydrogen peroxide as a toxicant): 31% | average toxicities (survival) (D. melanogaster [3]; simple treatment): 55% | IC50 (HL60 cells): 87 µM | Mutation rate (Spots per wing) Large single spots (>2 cells) m = 5 (D. melanogaster [4]; GLA 8.9 mM + H2O2 0.12 M): 0.02 (1) spots per wing | Mutation rate (Spots per wing) Small single spots (1–2 cells) m = 2 (D. melanogaster [4]; GLA 8.9 mM + H2O2 0.12 M): 0.3 (15) spots per wing | Mutation rate (Spots per wing) Total spots m = 2 (D. melanogaster [4]; GLA 8.9 mM + H2O2 0.12 M): 0.32 spots per wing | Mutation rate (Spots per wing) Twin spots m = 5 (D. melanogaster [4]; GLA 8.9 mM + H2O2 0.12 M): 0 spots per wing | % of inhibition (D. melanogaster [4]; GLA 8.9 mM + H2O2 0.12 M): 37% | Mutation rate (Spots per wing) Large single spots (>2 cells) m = 5 (D. melanogaster [4]; GLA 13 mM + H2O2 0.12 M): 0 spots per wing | Mutation rate (Spots per wing) Small single spots (1–2 cells) m = 2 (D. melanogaster [4]; GLA 13 mM + H2O2 0.12 M): 0.25 (3) spots per wing | Mutation rate (Spots per wing) Total spots m = 2 (D. melanogaster [4]; GLA 13 mM + H2O2 0.12 M): 0.25 spots per wing | Mutation rate (Spots per wing) Twin spots m = 5 (D. melanogaster [4]; GLA 13 mM + H2O2 0.12 M): 0 spots per wing | % of inhibition (D. melanogaster [4]; GLA 13 mM + H2O2 0.12 M): 51% | Mutation rate (Spots per wing) Large single spots (>2 cells) m = 5 (D. melanogaster [4]; GLA 22 mM + H2O2 0.12 M): 0 spots per wing | Mutation rate (Spots per wing) Small single spots (1–2 cells) m = 2 (D. melanogaster [4]; GLA 22 mM + H2O2 0.12 M): 0.39 (11) spots per wing | Mutation rate (Spots per wing) Total spots m = 2 (D. melanogaster [4]; GLA 22 mM + H2O2 0.12 M): 0.42 spots per wing | Mutation rate (Spots per wing) Twin spots m = 5 (D. melanogaster [4]; GLA 22 mM + H2O2 0.12 M): 0.03 (1) spots per wing | % of inhibition (D. melanogaster [4]; GLA 22 mM + H2O2 0.12 M): 17% | Mutation rate (Spots per wing) Large single spots (>2 cells) m = 5 (D. melanogaster [4]; GLA 45 mM + H2O2 0.12 M): 0.03 (1) spots per wing | Mutation rate (Spots per wing) Small single spots (1–2 cells) m = 2 (D. melanogaster [4]; GLA 45 mM + H2O2 0.12 M): 0.19 (5) spots per wing | Mutation rate (Spots per wing) Total spots m = 2 (D. melanogaster [4]; GLA 45 mM + H2O2 0.12 M): 0.26 spots per wing | Mutation rate (Spots per wing) Twin spots m = 5 (D. melanogaster [4]; GLA 45 mM + H2O2 0.12 M): 0.03 (1) spots per wing | % of inhibition (D. melanogaster [4]; GLA 45 mM + H2O2 0.12 M): 49% | Mutation rate (Spots per wing) Large single spots (>2 cells) m = 5 (D. melanogaster [4]; GLA 90 mM + H2O2 0.12 M): 0.06 (1) spots per wing | Mutation rate (Spots per wing) Small single spots (1–2 cells) m = 2 (D. melanogaster [4]; GLA 90 mM + H2O2 0.12 M): 0.18 (3) spots per wing | Mutation rate (Spots per wing) Total spots m = 2 (D. melanogaster [4]; GLA 90 mM + H2O2 0.12 M): 0.25 spots per wing | Mutation rate (Spots per wing) Twin spots m = 5 (D. melanogaster [4]; GLA 90 mM + H2O2 0.12 M): 0 spots per wing | % of inhibition (D. melanogaster [4]; GLA 90 mM + H2O2 0.12 M): 51% | antigenotoxicity (D. melanogaster [4]; compared to hydrogen peroxide): antimutagenic | inhibitory potential against hydrogen peroxide, weighted average (D. melanogaster [4]; over all concentrations): 38.1% | weighted average of induced spots/wing (D. melanogaster [5]; Drosophila melanogaster): 0.23 spots/wing | genotoxicity (D. melanogaster [5]): non-genotoxic

CCCCC/C=C\C/C=C\C/C=C\C/C=C\CCCC(=O)O [arachidonic acid]
concentrations with necrotic effect ([6]; high concentrations): 400 to 1600 µM | concentrations with apoptotic effect ([6]; low concentrations): 10 to 400 µM | toxicity to E9 cells ([1]; pretreatment with 0.03 mM): significant toxicity

OO [hydrogen peroxide]
Survival percentage for 0.12 M hydrogen peroxide alone treatments (D. melanogaster [3]; 0.12 M hydrogen peroxide alone): 84.44^(4) % | Total spots diagnosis (D. melanogaster [4]; in vivo): + | Mutation rate (Spots per wing) Large single spots (>2 cells) m = 5 (D. melanogaster [5]): 0.03 (12) spots per wing | Mutation rate (Spots per wing) Small single spots (1–2 cells) m = 2 (D. melanogaster [5]): 0.46 (126) spots per wing | Mutation rate (Spots per wing) Total spots m = 2 (D. melanogaster [5]): 0.51 spots per wing | Mutation rate (Spots per wing) Twin spots m = 5 (D. melanogaster [5]): 0.01 (3) spots per wing | N° of emerging adults (D. melanogaster [5]): 328 | Total spots diagnosis (D. melanogaster [5]): +
